Source: ChEMBL document CHEMBL5150024, “Design and synthesis of TPP+-Mitomycin C conjugate with reduced toxicity” (Bioorg Med Chem Lett, 2022)
Blank lines part the entries; values can stand above or below the compound they belong to. Activity calls are given as the source filed them. The rule behind the calls is not given here.

Assays:
[1] = test system: A-375; test: Antiproliferative activity against human A-375 cells assessed as inhibition of cell growth incubated for 48 hrs by MTT assay; format: functional, cell-based; conditions: A-375, 48 h
[2] = test system: A549; test: Antiproliferative activity against human A549 cells assessed as inhibition of cell growth incubated for 48 hrs by MTT assay; format: functional, cell-based; conditions: A549, 48 h
[3] = test system: MDA-MB-231; test: Antiproliferative activity against human MDA-MB-231 cells assessed as inhibition of cell growth incubated for 48 hrs by MTT assay; format: functional, cell-based; conditions: MDA-MB-231, 48 h
[4] = test system: MCF7; test: Antiproliferative activity against human MCF7 cells assessed as inhibition of cell growth incubated for 48 hrs by MTT assay; format: functional, cell-based; conditions: MCF7, 48 h
[5] = test system: HCT-116; test: Antiproliferative activity against human HCT-116 cells assessed as inhibition of cell growth incubated for 48 hrs by MTT assay; format: functional, cell-based; conditions: HCT-116, 48 h
[6] = test system: PC-3; test: Antiproliferative activity against human PC-3 cells assessed as inhibition of cell growth incubated for 48 hrs by MTT assay; format: functional, cell-based; conditions: PC-3, 48 h
[7] = Cytotoxicity against human L02 cells assessed as inhibition of cell growth incubated for 48 hrs by MTT assay; format: toxicity, cell-based
[8] = Cytotoxicity against HUVEC assessed as inhibition of cell growth incubated for 48 hrs by MTT assay; format: toxicity, cell-based; conditions: human
[9] = Toxicity in mouse assessed as death at 10 to 20 mg/kg, ip administered for 7 days and measured every 2 days; format: organism-based; conditions: in vivo, 168 h, dose 10-20 mg/kg, time 7 day
[10] = Toxicity in mouse assessed as clinical signs at 10 to 20 mg/kg, ip administered for 7 days and measured every 2 days; format: organism-based; conditions: in vivo, 168 h, dose 10-20 mg/kg, time 7 day
[11] = Toxicity in mouse assessed as effect on body weight at 20 mg/kg, ip administered for 7 days and measured every 2 days; format: organism-based; conditions: in vivo, 168 h, time 7 day
[12] = test system: A549; test: Antiproliferative activity against human A549 cells assessed as inhibition of cell growth preincubated with FCCP for 1 hrs followed by compound addition and measured after 48 hrs by MTT assay; format: functional, cell-based
[13] = test system: A549; test: Induction of mitochondrial membrane depolarization in human A549 cells assessed as loss of red fluorescence at 2 to 8 uM incubated for 4 hrs by TMRM staining based fluorescence assay; format: functional, cell-based; conditions: dose 2-8 µM
[14] = test system: A549; test: Induction of mitochondrial membrane depolarization in human A549 cells assessed as increase in green fluorescence by measuring JC-1 monomer at 2 to 8 uM incubated for 4 hrs by JC-1 dye based assay; format: functional, cell-based; conditions: dose 2-8 µM
[15] = test system: A549; test: Induction of mitochondrial membrane depolarization in human A549 cells assessed as increase in JC-1 monomer ratio at 2 to 8 uM incubated for 24 hrs by JC-1 staining based flow cytometric analysis; format: functional, cell-based; conditions: dose 2-8 µM
[16] = test system: A549; test: Induction of apoptosis in human A549 cells at 4 uM by Annexin V-FITC/PI staining based flow cytometric analysis; format: functional, cell-based; conditions: time 12-48 hrs, TDE = time-dependent effect
[17] = test system: A549; test: Induction of apoptosis in human A549 cells assessed as total apoptotic cells at 1 uM incubated for 48 hrs by Annexin V-FITC/PI staining based flow cytometric analysis relative to control; format: functional
[18] = test system: A549; test: Induction of apoptosis in human A549 cells assessed as total apoptotic cells at 2 uM incubated for 48 hrs by Annexin V-FITC/PI staining based flow cytometric analysis relative to control; format: functional
[19] = test system: A549; test: Induction of apoptosis in human A549 cells assessed as total apoptotic cells at 4 uM incubated for 48 hrs by Annexin V-FITC/PI staining based flow cytometric analysis relative to control; format: functional
[20] = test system: A549; test: Induction of cell cycle arrest in human A549 cells assessed as G1 phase cells at 1 uM incubated for 24 hrs by flow cytometric analysis (reference value: 60.75 %); format: functional
[21] = test system: A549; test: Induction of cell cycle arrest in human A549 cells assessed as S phase cells at 1 uM incubated for 24 hrs by flow cytometric analysis (reference value: 23.49 %); format: functional
[22] = test system: A549; test: Induction of cell cycle arrest in human A549 cells assessed as G2 phase cells at 1 uM incubated for 24 hrs by flow cytometric analysis (reference value: 15.75 %); format: functional
[23] = test system: A549; test: Induction of cell cycle arrest in human A549 cells assessed as G1 phase cells at 2 uM incubated for 24 hrs by flow cytometric analysis (reference value: 60.75 %); format: functional
[24] = test system: A549; test: Induction of cell cycle arrest in human A549 cells assessed as S phase cells at 2 uM incubated for 24 hrs by flow cytometric analysis (reference value: 23.49 %); format: functional
[25] = test system: A549; test: Induction of cell cycle arrest in human A549 cells assessed as G2 phase cells at 2 uM incubated for 24 hrs by flow cytometric analysis (reference value: 15.75 %); format: functional
[26] = test system: A549; test: Induction of cell cycle arrest in human A549 cells assessed as G1 phase cells at 4 uM incubated for 24 hrs by flow cytometric analysis (reference value: 60.75 %); format: functional
[27] = test system: A549; test: Induction of cell cycle arrest in human A549 cells assessed as S phase cells at 4 uM incubated for 24 hrs by flow cytometric analysis (reference value: 23.49 %); format: functional
[28] = test system: A549; test: Induction of cell cycle arrest in human A549 cells assessed as G2 phase cells at 4 uM incubated for 24 hrs by flow cytometric analysis (reference value: 15.75 %); format: functional
[29] = test system: A549; test: Inhibition of cell migration in human A549 cells at 2 uM incubated for 48 hrs by wound healing assay; format: functional, cell-based
[30] = test system: A549; test: Inhibition of cell invasion in human A549 cells at 2 to 4 uM incubated for 24 hrs by transwell invasion assay; format: functional, cell-based; conditions: dose 2-4 µM
[31] = Toxicity in mouse assessed as effect on lung pathology at 10 to 20 mg/kg, ip administered for 7 days and measured every 2 days; format: organism-based; conditions: in vivo, 168 h, dose 10-20 mg/kg, time 7 day
[32] = Toxicity in mouse assessed as effect on heart pathology at 10 to 20 mg/kg, ip administered for 7 days and measured every 2 days; format: organism-based; conditions: in vivo, 168 h, dose 10-20 mg/kg, time 7 day
[33] = Toxicity in mouse assessed as effect on liver pathology at 10 to 20 mg/kg, ip administered for 7 days and measured every 2 days; format: organism-based; conditions: in vivo, 168 h, dose 10-20 mg/kg, time 7 day
[34] = Toxicity in mouse assessed as effect on spleen pathology at 10 to 20 mg/kg, ip administered for 7 days and measured every 2 days; format: organism-based; conditions: in vivo, 168 h, dose 10-20 mg/kg, time 7 day
[35] = Toxicity in mouse assessed as effect on kidney pathology at 10 to 20 mg/kg, ip administered for 7 days and measured every 2 days; format: organism-based; conditions: in vivo, 168 h, dose 10-20 mg/kg, time 7 day

Compound: CO[C@@]12[C@H](COC(N)=O)C3=C(C(=O)C(C)=C(N)C3=O)N1C[C@H]1[C@@H]2N1C(=O)CCCCCCCCC[P+](c1ccccc1)(c1ccccc1)c1ccccc1.[Br-]
- IC50 [1]: 1460 nM
- IC50 [2]: 1090 nM
- IC50 [3]: 3110 nM
- IC50 [4]: 5450 nM
- IC50 [5]: 1220 nM
- IC50 [6]: 6050 nM
- IC50 at 48 h [7]: > 20000 nM
- IC50 at 48 h [8]: > 20000 nM
- Activity [9]: Non-Toxic
- Activity [10]: Non-Toxic
- Activity [11]: Non-Toxic
- IC50 [12]: 11300 nM
- Activity [13]: Active
- Activity [14]: Active
- Activity [15]: Active
- Activity [16]: Tde
- Activity [17]: 18%
- Activity [18]: 20.2%
- Activity [19]: 24.9%
- Activity [20]: 14.87%
- Activity [21]: 50.92%
- Activity [22]: 34.21%
- Activity [23]: 5.79%
- Activity [24]: 49.53%
- Activity [25]: 44.68%
- Activity [26]: 0.72%
- Activity [27]: 84.94%
- Activity [28]: 14.35%
- inhibition [29]: Active
- inhibition [30]: Active
- Activity [31]: Non-Toxic
- Activity [32]: Non-Toxic
- Activity [33]: Non-Toxic
- Activity [34]: Non-Toxic
- Activity [35]: Non-Toxic

Compound: CO[C@@]12[C@H](COC(N)=O)C3=C(C(=O)C(C)=C(N)C3=O)N1C[C@H]1[C@@H]2N1CCCCCCCCCC[P+](c1ccccc1)(c1ccccc1)c1ccccc1 (some centres undefined)
- IC50 [1]: 1960 nM
- IC50 [2]: 2820 nM
- IC50 [3]: 1950 nM
- IC50 [4]: 3170 nM
- IC50 [5]: 1960 nM
- IC50 [6]: 4710 nM
- IC50 at 48 h [7]: > 5000 nM
- IC50 at 48 h [8]: 10000 nM

- IC50 [1]: 640 nM
- IC50 [2]: 670 nM
- IC50 [3]: 2630 nM
- IC50 [4]: 4560 nM
- IC50 [5]: 750 nM
- IC50 [6]: 970 nM
Compound: CO[C@@]12[C@H](COC(N)=O)C3=C(C(=O)C(C)=C(N)C3=O)N1C[C@H]1[C@@H]2N1C(=O)CCCCCCCCCCC[P+](c1ccccc1)(c1ccccc1)c1ccccc1
- IC50 at 48 h [7]: > 2500 nM
- IC50 at 48 h [8]: > 5000 nM

- IC50 [1]: 1860 nM
- IC50 [2]: 1310 nM
- IC50 [3]: 7640 nM
- IC50 [4]: 6590 nM
- IC50 [5]: 1230 nM
- IC50 [6]: 11900 nM
Compound: CO[C@@]12[C@H](COC(N)=O)C3=C(C(=O)C(C)=C(N)C3=O)N1C[C@H]1[C@@H]2N1C(=O)CCCCCCC[P+](c1ccccc1)(c1ccccc1)c1ccccc1
- IC50 at 48 h [7]: > 20000 nM
- IC50 at 48 h [8]: > 20000 nM
